From patent US20090068290A1, “BIFEPRUNOX DOSES FOR TREATING SCHIZOPHRENIA” (priority 2006, published 2009)

Columns and labels:
Format in all cases: in vivo, human
[1] = tested on: adult subjects with schizophrenia; assay: BPRS psychosis cluster score, Clinical Study One; settings: for Change from Baseline in BPRS Psychosis Cluster Score, Mean (S.D.) / Change from Baseline in BPRS Psychosis Cluster Score, Median: Bifeprunox 20 mg, LOCF, ITT population
Protocol: There were five treatment groups in this study. […] Study medication was administered once daily. After Baseline measurements were performed, the titration phase was begun. Bifeprunox treated subjects were titrated up to 5 mg, 10 mg or 20 mg according to a standardized titration schedule (Day 1: 0.125 mg, Day 2: 0.25 mg, Day 3: 0.5 mg, Day 4: 1.0 mg, Day 5: 2.0 mg, Day 6: 5.0 mg, Day 7: 10.0 mg, Day 8: 20 mg). When the assigned dose was reached, subjects were maintained at that dose for the remainder of the six-week treatment period.

[2] = tested on: adult subjects with schizophrenia; assay: PANSS positive symptom subscale score, Clinical Study Two; settings: LOCF, ITT; for PANSS Positive Symptom Subscale Score, Trt Effect (bifeprunox—placebo): ANCOVA
Protocol: Rating scale assessments were performed weekly, except for week 5, to measure the change from baseline to endpoint of the PANSS total score. Other assessments included: PANSS positive symptom subscale score, PANSS negative symptom subscale score, PANSS general pschopathology subscale score, BPRS total score, BPRS psychosis score, the CGI-S score, the CGI-I score, responder rates based on the PANSS total score, and the Calgary Depression Scale for Schizophrenia (CDSS). […]
(§1) Subjects who completed this study had the option to continue in the long-term. […] Risperidone-treated subjects were titrated from 2 mg to 6 mg daily over a three-day period and were subsequently maintained at 6 mg/day for the remainder of the treatment period. […] Blood samples were also obtained at Screening/Baseline, Week 3, and Week 6 for clinical laboratory assessments.

[3] = tested on: adult subjects with schizophrenia; assay: Adverse events (TEAE, SAE, special interest, EPS-related TEAE), Clinical Study Two
Protocol: as §1

[4] = tested on: adult subjects with schizophrenia; assay: CGI responder rate, Clinical Study Two; settings: LOCF
Protocol: Notable differences were also observed between the 30 mg bifeprunox group and placebo for the change from baseline to endpoint in PANSS general psychopathology subscale score, BPRS total score, BPRS psychosis cluster score, PANSS responder rate, and CGI-I responder rate. In the study, a PANSS responder refers to a subject whose PANSS total score decreased by 20% or more from baseline to endpoint. A CGI-I responder refers to a subject who was categorized as “very much improved” or “much improved” in the CGI Global Improvement scale at endpoint.
Pharmacokinetic (PK) data of bifeprunox in schizophrenic subjects were also assessed and are presented in a separate report (combined with data from study S1543003).
as §1
CLINICAL STUDY TWO: A CGI responder is defined as a subject who is categorized as “very much improved” or “much improved” on the CGI Improvement scale. […] A notable difference between the 30 mg bifeprunox group and placebo was seen (p=0.039).

[5] = Bifeprunox 30 mg, Week 6/Endpoint
[6] = Bifeprunox 40 mg, Week 6/Endpoint

## O=c1[nH]c2cccc(N3CCN(Cc4cccc(-c5ccccc5)c4)CC3)c2o1 [Bifeprunox, 7-[4-([1,1′-biphenyl]-3-ylmethyl)-1-piperazinyl]-2(3H)-benzoxazolone]
[1]; Week 3
  Change from Baseline in BPRS Psychosis Cluster Score, Mean (S.D.): −2.7 (3.5)
  Change from Baseline in BPRS Psychosis Cluster Score, Median: −3
[1]; Week 4
  Change from Baseline in BPRS Psychosis Cluster Score, Mean (S.D.): −2.8 (3.7)
  Change from Baseline in BPRS Psychosis Cluster Score, Median: −3
[1]; bifeprunox 20 mg, Endpoint LOCF
  BPRS psychosis cluster score, treatment effect (bifeprunox—placebo): −1.1
[2]; Bifeprunox 30 mg, Week 1
  Change from Baseline in PANSS Positive Symptom Subscale Score, Mean (SD): −2.3 (3.6)
  Change from Baseline in PANSS Positive Symptom Subscale Score, Median: −2
[2]; Bifeprunox 30 mg, Week 2
  Change from Baseline in PANSS Positive Symptom Subscale Score, Mean (SD): −4.1 (5.3)
  Change from Baseline in PANSS Positive Symptom Subscale Score, Median: −3
[2]; Bifeprunox 30 mg, Week 3
  Change from Baseline in PANSS Positive Symptom Subscale Score, Mean (SD): −4.5 (5.6)
  Change from Baseline in PANSS Positive Symptom Subscale Score, Median: −4
[2]; Bifeprunox 30 mg, Week 4
  Change from Baseline in PANSS Positive Symptom Subscale Score, Mean (SD): −4.4 (5.9)
  Change from Baseline in PANSS Positive Symptom Subscale Score, Median: −4
[2]; [5]
  Change from Baseline in PANSS Positive Symptom Subscale Score, Mean (SD): −4.5 (6.6)
  Change from Baseline in PANSS Positive Symptom Subscale Score, Median: −4
  PANSS Positive Symptom Subscale Score, Trt Effect (bifeprunox—placebo): −1.9
[2]; Bifeprunox 40 mg, Week 1
  Change from Baseline in PANSS Positive Symptom Subscale Score, Mean (SD): −2.8 (3.9)
  Change from Baseline in PANSS Positive Symptom Subscale Score, Median: −2
[2]; Bifeprunox 40 mg, Week 2
  Change from Baseline in PANSS Positive Symptom Subscale Score, Mean (SD): −3.6 (5.7)
  Change from Baseline in PANSS Positive Symptom Subscale Score, Median: −3
[2]; Bifeprunox 40 mg, Week 3
  Change from Baseline in PANSS Positive Symptom Subscale Score, Mean (SD): −4.1 (6.3)
  Change from Baseline in PANSS Positive Symptom Subscale Score, Median: −4
[2]; Bifeprunox 40 mg, Week 4
  Change from Baseline in PANSS Positive Symptom Subscale Score, Mean (SD): −3.7 (6.6)
  Change from Baseline in PANSS Positive Symptom Subscale Score, Median: −3
[2]; [6]
  Change from Baseline in PANSS Positive Symptom Subscale Score, Mean (SD): −4.2 (6.9)
  Change from Baseline in PANSS Positive Symptom Subscale Score, Median: −4
  PANSS Positive Symptom Subscale Score, Trt Effect (bifeprunox—placebo): −1.7
[3]; BX 30 mg
  AKATHISIA, %: (3%)
  BALANCE DISORDER, %: (<1%)
  COGWHEEL RIGIDITY, %: (<1%)
  DISTURBANCE IN ATTENTION, %: (<1%)
  DIZZINESS, %: (8%)
  DYSARTHRIA, %: (<1%)
  DYSGEUSIA, %: (<1%)
  DYSKINESIA, %: (1%)
  Dystonia, %: (2%)
  EXTRAPYRAMIDAL DISORDER, %: (5%)
  HEADACHE NOS, %: (12%)
  MIGRAINE, %: 1 (<1%)
  NERVOUS SYSTEM DISORDERS, %: (36%)
  PARAESTHESIA, %: 1 (<1%)
  PSYCHOMOTOR HYPERACTIVITY, %: 1 (<1%)
  SEDATION, %: 5%
  Syncope, %: 1 (<1%)
  TARDIVE DYSKINESIA, %: < 1%
  TREMOR, %: 6%
[3]; BX 40 mg
  AKATHISIA, %: (7%)
  Choreoathetosis, %: (<1%)
  DIZZINESS, %: (14%)
  DYSKINESIA, %: (3%)
  Dystonia, %: (2%)
  EXTRAPYRAMIDAL DISORDER, %: (5%)
  HEADACHE NOS, %: (17%)
  NERVOUS SYSTEM DISORDERS, %: (37%)
  SEDATION, %: 3%
  SOMNOLENCE, %: 1 (<1%)
  TARDIVE DYSKINESIA, %: 1 (<1%)
  TREMOR, %: 7%
[3]; bifeprunox 30 mg and 40 mg, 6 weeks
  safety and tolerability: safe and well tolerated
[3]; bifeprunox groups (30, 40 mg)
  incidence of severe TEAE of schizophrenia: 3%
[4]; 30 mg
  CGI Responder at Endpoint No, %: 64%
  CGI Responder at Endpoint Yes, %: 36%
[4]; 40 mg
  CGI Responder at Endpoint No, %: 72%
  CGI Responder at Endpoint Yes, %: 28%
[4]; bifeprunox 30 mg
  CGI-I responder rate (subjects much or very much improved) at Endpoint: 36%
[4]; bifeprunox 40 mg
  CGI-I responder rate (subjects much or very much improved) at Endpoint: 28%
